Test results reported in patent publication US11339419B2, “Scavenger protein(s) for improved preservation of analyte detection sensor(s) and method(s) of use thereof” (Siemens Healthcare Diagnostics Inc., priority 2017, dated 2022).
“And” between values parts separate entries of the source, which are not always exact repeats. Identical values can stand only once.

Columns and labels:
[1] = test system: sarcosine oxidase (Toyobo); assay: Toyobo Sarcosine Oxidase Enzyme Absorbance with BSA and MIT; assay type: biochemical; conditions: for Sarcosine Oxidase Enzyme Absorbance, replicates 7-11 / Sarcosine Oxidase Enzyme Absorbance, MEAN of 7-11 / Sarcosine Oxidase Enzyme Absorbance, MEAN of 1-5: 37° C.
Procedure: Tables 1-4 depict aqueous solutions comprising varying concentrations of BSA (at concentrations of 0 mg/mL, 5 mg/mL, 25 mg/mL, and 50 mg/mL), varying concentrations of MIT (at concentrations of 50 parts per million and 100 parts per million) or Proclin™ 300 (at concentrations of 0.7% and 1.4%) biocides over a particular time period (measurements were taken at days 0, 4, and 14 after exposure of the enzyme(s) to the aqueous solutions) and the associated enzyme absorbance measurements for sarcosine oxidase (commercially offered for sale by BBI Solutions and Toyobo). Absorbance measurements of the sarcosine oxidase enzyme(s) were taken via spectrophotometer for each aqueous solution (represented as columns 1-5 in Tables 1-4—column 6 is a blank), the absorbance being directly proportional to the enzyme activity being measured-which for Tables 1-4 is sarcosine oxidase enzyme activity. Accordingly, the higher the absorbance measurement, the higher the enzyme activity of sarcosine oxidase. Columns 7-11 represent five replicate readings in which the aqueous solution only contains BSA (i.e., there is no biocide(s) present in the aqueous solution). In addition, the mean values, standard deviations, and coefficients of variation are also presented for the enzyme activity/absorbance of each aqueous solution. All measurements were taken at 37° C.
As depicted below in Table 2, sarcosine oxidase (commercially offered for sale by Toyobo) enzyme activity is measured against various concentrations of MIT (biocide) and BSA (scavenger protein) over a period of 14 days (with absorbance measurements taken at 0, 4, and 14 days) for five different aqueous solutions (represented as columns 1-5-column 6 is a blank).

creatininase (Toyobo) = assay: Toyobo Creatininase Enzyme Absorbance with BSA and Proclin 300; assay type: biochemical
From the text: Absorbance measurements of the creatininase enzyme(s) were taken via spectrophotometer for each aqueous solution (represented as columns 1-5 in Tables 5-8—column 6 is a blank), the absorbance being directly proportional to the enzyme activity being measured-which for Tables 5-8 is creatininase enzyme activity. Accordingly, the higher the absorbance measurement, the higher the enzyme activity of creatininase. […] In addition, the mean values, standard deviations, and coefficients of variation are all presented for the enzyme activity/absorbance of each aqueous solution. All measurements were taken at 37° C.

[2] = Day 4, 25 mg/mL BSA only, no MIT (100 ppm MIT row)
[3] = Day 4, 50 mg/mL BSA only, no MIT (50 ppm MIT row)
[4] = Day 4, 50 mg/mL BSA only, no MIT (100 ppm MIT row)
[5] = Day 14, 5 mg/mL BSA only, no MIT (50 ppm MIT row)
[6] = Day 14, 5 mg/mL BSA only, no MIT (100 ppm MIT row)
[7] = Day 14, 25 mg/mL BSA only, no MIT (50 ppm MIT row)
[8] = Day 14, 25 mg/mL BSA only, no MIT (100 ppm MIT row)
[9] = Day 14, 50 mg/mL BSA only, no MIT (50 ppm MIT row)
[10] = Day 14, 50 mg/mL BSA only, no MIT (100 ppm MIT row)
[11] = Day 0, BSA 5 mg/mL only, no Proclin 300, listed as of 0.7% Proclin 300
[12] = Day 0, BSA 5 mg/mL only, no Proclin 300, listed as of 1.4% Proclin 300
[13] = Day 0, BSA 25 mg/mL only, no Proclin 300, listed as of 0.7% Proclin 300
[14] = Day 0, BSA 25 mg/mL only, no Proclin 300, listed as of 1.4% Proclin 300
[15] = Day 0, BSA 50 mg/mL only, no Proclin 300, listed as of 0.7% Proclin 300
[16] = Day 0, BSA 50 mg/mL only, no Proclin 300, listed as of 1.4% Proclin 300

Substance: bovine serum albumin [BSA]
- Sarcosine Oxidase Enzyme Absorbance, replicates 7-11 ([1]; Day 4, 25 mg/mL BSA only, no MIT (50 ppm MIT row)): 1.388 and 1.399 and 1.382 and 1.357 and 1.362
- Sarcosine Oxidase Enzyme Absorbance, MEAN of 7-11 [1, 2]: 1.23
- Sarcosine Oxidase Enzyme Absorbance, replicates 7-11 [1, 2]: 1.366 and 1.381 and 1.402 and 1.382 and 1.388
- Sarcosine Oxidase Enzyme Absorbance, MEAN of 7-11 [1, 3]: 1.24
- Sarcosine Oxidase Enzyme Absorbance, replicates 7-11 [1, 3]: 1.386 and 1.428 and 1.403 and 1.415 and 1.372
- Sarcosine Oxidase Enzyme Absorbance, MEAN of 7-11 [1, 4]: 1.24
- Sarcosine Oxidase Enzyme Absorbance, replicates 7-11 [1, 4]: 1.384 and 1.407 and 1.4 and 1.389 and 1.388
- % Bias ([1]; Day 4, 50 ppm MIT vs no MIT, 5 mg/mL BSA): 775.9%
- % Bias ([1]; Day 4, 50 ppm MIT vs no MIT, 25 mg/mL BSA): 11.9%
- % Bias ([1]; Day 4, 50 ppm MIT vs no MIT, 50 mg/mL BSA): 12.4%
- Sarcosine Oxidase Enzyme Absorbance, MEAN of 1-5 ([1]; Day 4, 50 ppm MIT, 5 mg/mL BSA): 0.86
- Sarcosine Oxidase Enzyme Absorbance, MEAN of 1-5 ([1]; Day 4, 50 ppm MIT, 25 mg/mL BSA): 1.37
- Sarcosine Oxidase Enzyme Absorbance, MEAN of 1-5 ([1]; Day 4, 50 ppm MIT, 50 mg/mL BSA): 1.40
- % Bias ([1]; Day 4, 100 ppm MIT vs no MIT, 5 mg/mL BSA): 16.5%
- % Bias ([1]; Day 4, 100 ppm MIT vs no MIT, 25 mg/mL BSA): 10.4%
- % Bias ([1]; Day 4, 100 ppm MIT vs no MIT, 50 mg/mL BSA): 11.1%
- Sarcosine Oxidase Enzyme Absorbance, MEAN of 1-5 ([1]; Day 4, 100 ppm MIT, 5 mg/mL BSA): 0.92
- Sarcosine Oxidase Enzyme Absorbance, MEAN of 1-5 ([1]; Day 4, 100 ppm MIT, 25 mg/mL BSA): 1.35
- Sarcosine Oxidase Enzyme Absorbance, MEAN of 1-5 ([1]; Day 4, 100 ppm MIT, 50 mg/mL BSA): 1.37
- Sarcosine Oxidase Enzyme Absorbance, MEAN of 7-11 [1, 5]: 0.29
- Sarcosine Oxidase Enzyme Absorbance, replicates 7-11 [1, 5]: 0.329 and 0.33 and 0.348 and 0.327 and 0.333
- Sarcosine Oxidase Enzyme Absorbance, MEAN of 7-11 [1, 6]: 0.31
- Sarcosine Oxidase Enzyme Absorbance, replicates 7-11 [1, 6]: 0.342 and 0.353 and 0.351 and 0.382 and 0.368
- Sarcosine Oxidase Enzyme Absorbance, MEAN of 7-11 [1, 7]: 1.36
- Sarcosine Oxidase Enzyme Absorbance, replicates 7-11 [1, 7]: 1.406 and 1.41 and 1.429 and 1.404 and 1.403
- Sarcosine Oxidase Enzyme Absorbance, MEAN of 7-11 [1, 8]: 1.41
- Sarcosine Oxidase Enzyme Absorbance, replicates 7-11 [1, 8]: 1.443 and 1.445 and 1.46 and 1.471 and 1.461
- Sarcosine Oxidase Enzyme Absorbance, MEAN of 7-11 [1, 9]: 1.41
- Sarcosine Oxidase Enzyme Absorbance, replicates 7-11 [1, 9]: 1.436 and 1.456 and 1.449 and 1.465 and 1.488
- Sarcosine Oxidase Enzyme Absorbance, MEAN of 7-11 [1, 10]: 1.42
- Sarcosine Oxidase Enzyme Absorbance, replicates 7-11 [1, 10]: 1.476 and 1.446 and 1.464 and 1.474 and 1.469
- % Bias ([1]; Day 14, 50 ppm MIT vs no MIT, 5 mg/mL BSA): 0.3%
- % Bias ([1]; Day 14, 50 ppm MIT vs no MIT, 25 mg/mL BSA): 1.6%
- % Bias ([1]; Day 14, 50 ppm MIT vs no MIT, 50 mg/mL BSA): 0.7%
- Sarcosine Oxidase Enzyme Absorbance, MEAN of 1-5 ([1]; Day 14, 50 ppm MIT, 5 mg/mL BSA): 0.29
- Sarcosine Oxidase Enzyme Absorbance, MEAN of 1-5 ([1]; Day 14, 50 ppm MIT, 25 mg/mL BSA): 1.39
- Sarcosine Oxidase Enzyme Absorbance, MEAN of 1-5 ([1]; Day 14, 50 ppm MIT, 50 mg/mL BSA): 1.42
- % Bias ([1]; Day 14, 100 ppm MIT vs no MIT, 5 mg/mL BSA): −0.8%
- % Bias ([1]; Day 14, 100 ppm MIT vs no MIT, 25 mg/mL BSA): −0.1%
- % Bias ([1]; Day 14, 100 ppm MIT vs no MIT, 50 mg/mL BSA): 0.2%
- Sarcosine Oxidase Enzyme Absorbance, MEAN of 1-5 ([1]; Day 14, 100 ppm MIT, 5 mg/mL BSA): 0.31
- Sarcosine Oxidase Enzyme Absorbance, MEAN of 1-5 ([1]; Day 14, 100 ppm MIT, 25 mg/mL BSA): 1.41
- Sarcosine Oxidase Enzyme Absorbance, MEAN of 1-5 ([1]; Day 14, 100 ppm MIT, 50 mg/mL BSA): 1.42
- absorbance of the sarcosine oxidase enzyme compared to samples containing 0 mg/mL of BSA ([1]; days 4 and 14, 5, 25 and 50 mg/mL BSA, with MIT): increased absorbance
- sarcosine oxidase absorbance, solutions 7-11 ([1]; days 4 and 14, only BSA, no MIT): increased (or at least maintained)
- Absorbance, solutions 7-11 (creatininase (Toyobo); [11]): 0.749
- MEAN absorbance, solutions 7-11 (creatininase (Toyobo); [11]): 0.61
- Absorbance, solutions 7-11 (creatininase (Toyobo); [12]): 0.569 and 0.573 and 0.57 and 0.582
- MEAN absorbance, solutions 7-11 (creatininase (Toyobo); [12]): 0.47
- Absorbance, solutions 7-11 (creatininase (Toyobo); [13]): 0.529
- MEAN absorbance, solutions 7-11 (creatininase (Toyobo); [13]): 0.40
- Absorbance, solutions 7-11 (creatininase (Toyobo); [14]): 0.508 and 0.507 and 0.518 and 0.514
- MEAN absorbance, solutions 7-11 (creatininase (Toyobo); [14]): 0.41
- Absorbance, solutions 7-11 (creatininase (Toyobo); [15]): 0.973
- MEAN absorbance, solutions 7-11 (creatininase (Toyobo); [15]): 1.39
- Absorbance, solutions 7-11 (creatininase (Toyobo); [16]): 0.488 and 0.464 and 0.506
- MEAN absorbance, solutions 7-11 (creatininase (Toyobo); [16]): 0.39
- MEAN absorbance, solutions 7-11 (creatininase (Toyobo); Day 4, BSA 5 mg/mL only, no Proclin 300, listed as of 0.7% Proclin 300): 0.87
- MEAN absorbance, solutions 7-11 (creatininase (Toyobo); Day 4, BSA 5 mg/mL only, no Proclin 300, listed as of 1.4% Proclin 300): 0.78
- MEAN absorbance, solutions 7-11 (creatininase (Toyobo); Day 4, BSA 25 mg/mL only, no Proclin 300, listed as of 0.7% Proclin 300): 0.68
- MEAN absorbance, solutions 7-11 (creatininase (Toyobo); Day 4, BSA 25 mg/mL only, no Proclin 300, listed as of 1.4% Proclin 300): 0.64
- MEAN absorbance, solutions 7-11 (creatininase (Toyobo); Day 4, BSA 50 mg/mL only, no Proclin 300, listed as of 0.7% Proclin 300): 0.56
- MEAN absorbance, solutions 7-11 (creatininase (Toyobo); Day 4, BSA 50 mg/mL only, no Proclin 300, listed as of 1.4% Proclin 300): 0.54
- MEAN absorbance, solutions 7-11 (creatininase (Toyobo); Day 14, BSA 5 mg/mL only, no Proclin 300, listed as of 0.7% Proclin 300): 0.92
- MEAN absorbance, solutions 7-11 (creatininase (Toyobo); Day 14, BSA 5 mg/mL only, no Proclin 300, listed as of 1.4% Proclin 300): 0.90
- MEAN absorbance, solutions 7-11 (creatininase (Toyobo); Day 14, BSA 25 mg/mL only, no Proclin 300, listed as of 0.7% Proclin 300): 0.71
- MEAN absorbance, solutions 7-11 (creatininase (Toyobo); Day 14, BSA 25 mg/mL only, no Proclin 300, listed as of 1.4% Proclin 300): 0.71
- MEAN absorbance, solutions 7-11 (creatininase (Toyobo); Day 14, BSA 50 mg/mL only, no Proclin 300, listed as of 0.7% Proclin 300): 0.58
- MEAN absorbance, solutions 7-11 (creatininase (Toyobo); Day 14, BSA 50 mg/mL only, no Proclin 300, listed as of 1.4% Proclin 300): 0.57
- absorbance of the creatininase enzyme compared to samples containing 0 mg/mL of BSA (creatininase (Toyobo); day 4, Proclin 300 0.7%, 5, 25 and 50 mg/mL BSA): increased (albeit a mild increase)
- creatininase absorbance, solutions 7-11 (creatininase (Toyobo); days 4 and 14, only BSA, no Proclin 300): increased (or at least maintained)
